Laboratory results from EP0726761B1, “MICROPARTICULAR PHARMACEUTICAL COMPOSITIONS IN MICELLAR FORM” (ISOMED, Inc., priority 1993, dated 1995).

Assays:
[1] = test system: P388 mouse leukemia; experiment: P388 mouse leukemia model, survival time; assay type: in vivo; details: 1.25 mg/kg intraperitoneally on Study Day-1; female mice inoculated with P388 on Day-0
Protocol: The P388 mouse leukemia model was prepared according to the method described by Daoud and Juliano in Cancer Res. 48: 5518 (1986). Female mice were intraperitoneally inoculated with P388 mouse leukemia (1 million cells/0.1 ml) on Study Day-0. The study drugs were intraperitoneally injected on Study Day-1. […]

[2] = test system: intestinal membranes; details: Tagesson et al., Gut 26:369 (1985); cited from earlier work

## CC[C@]1(O)C[C@H]2CN(CCc3c([nH]c4ccccc34)[C@@](C(=O)OC)(c3cc4c(cc3OC)N(C=O)[C@H]3[C@@](O)(C(=O)OC)[C@H](OC(C)=O)[C@]5(CC)C=CCN6CC[C@]43[C@@H]65)C2)C1 [Vincristin, vincristin]
[1]
  MEAN SURVIVAL TIME: 21.2 days

## sn-1-acyl-3-glycerophosphorylcholine [lyso-PC]
[2]
  concentration inducing histopathological damage to intestinal membranes: 0.01-1 mM
